From the supplement of paper PMC13380429
Structures can show the parent of a compound that is named as a salt.

Tests used:
Details in all cases: 72 h
[1] = test system: Vero E6; test: cell viability relative to DMSO; higher = less toxic
[2] = test system: U2OS; test: as above
[3] = test system: HepG2; test: as above
[4] = test system: Caco-2; test: as above
[5] = test system: Calu-3; test: as above
[6] = test system: Vero E6; test: relative viability EC50 (midpoint between 100% and the lowest measured viability); higher = less toxic
[7] = test system: U2OS; test: as above
[8] = test system: HepG2; test: as above
[9] = test system: Caco-2; test: as above
[10] = test system: Calu-3; test: as above
[11] = test system: Vero E6; test: drug sensitivity score (DSS) for viability; higher = more toxic; extreme values may be limits of the assay
[12] = test system: U2OS; test: as above
[13] = test system: HepG2; test: as above
[14] = test system: Caco-2; test: as above
[15] = test system: Calu-3; test: as above

Structure (SMILES) | cell viability ([1]; 1 nM) | cell viability ([1]; 10 nM) | cell viability ([1]; 100 nM) | cell viability ([1]; 1000 nM) | cell viability ([1]; 10000 nM) | cell viability ([2]; 1 nM) | cell viability ([2]; 10 nM) | cell viability ([2]; 100 nM) | cell viability ([2]; 1000 nM) | cell viability ([2]; 10000 nM) | cell viability ([3]; 1 nM) | cell viability ([3]; 10 nM) | cell viability ([3]; 100 nM) | cell viability ([3]; 1000 nM) | cell viability ([3]; 10000 nM) | cell viability ([4]; 1 nM) | cell viability ([4]; 10 nM) | cell viability ([4]; 100 nM) | cell viability ([4]; 1000 nM) | cell viability ([4]; 10000 nM) | cell viability ([5]; 1 nM) | cell viability ([5]; 10 nM) | cell viability ([5]; 100 nM) | cell viability ([5]; 1000 nM) | cell viability ([5]; 10000 nM) | relative viability EC50 [6] | relative viability EC50 [7] | relative viability EC50 [8] | relative viability EC50 [9] | relative viability EC50 [10] | drug sensitivity score [11] | drug sensitivity score [12] | drug sensitivity score [13] | drug sensitivity score [14] | drug sensitivity score [15]
O=C(OCCN1CCOCC1)c1cccnc1Nc1cccc(C(F)(F)F)c1 [morniflumate] | 107% | 100% | 102% | 105% | 99.3% | 96.5% | 104% | 97.8% | 97.8% | 97.3% | 90.8% | 93.8% | 87.3% | 94.7% | 88.4% | 120% | 103% | 99% | 102% | 80.1% | 91.9% | 97.1% | 102% | 106% | 108% | > 10 µM | > 10 µM | > 10 µM | > 10 µM | > 10 µM | 0 | 0 | 0 | 0.5 | 0
COc1ccc(-c2ccc3cc(C(=O)O)ccc3c2)cc1C12CC3CC(CC(C3)C1)C2 [adapalene] | 98.1% | 94.6% | 95.4% | 93.3% | 115% | 94.5% | 98.2% | 94.6% | 99.4% | 98.4% | 102% | 96.9% | 109% | 104% | 112% | 95.3% | 99.6% | 97.6% | 99.4% | 93.3% | 98.6% | 101% | 101% | 101% | 86.2% | > 10 µM | > 10 µM | > 10 µM | > 10 µM | > 10 µM | 0 | 0 | 0 | 0 | 0.1
OCCOc1ccc(/C(=C(/CCCl)c2ccccc2)c2ccccc2)cc1 [ospemifene] | 97.9% | 102% | 101% | 99.9% | 94.2% | 98.4% | 104% | 98.1% | 101% | 93.1% | 99.5% | 97% | 103% | 107% | 106% | 103% | 108% | 104% | 91.3% | 78% | 96.7% | 103% | 106% | 96.6% | 101% | > 10 µM | > 10 µM | > 10 µM | > 10 µM | > 10 µM | 0 | 0 | 0 | 1.7 | 0
O=C(Cc1ccc(-c2ccc(OCCN3CCOCC3)cc2)cn1)NCc1ccccc1 [KX2-391] | 91.7% | 93.2% | 88.3% | 24.5% | 27.2% | 97.5% | 94.8% | 96.4% | 24.5% | 19.5% | 107% | 113% | 80.8% | 34.5% | 38.5% | 102% | 92.3% | 91.7% | 45.3% | 39.2% | 96.8% | 90.8% | 82.8% | 54.5% | 42% | 0.196 µM | 0.339 µM | 0.143 µM | 0.284 µM | 0.222 µM | 15.8 | 14.3 | 14.9 | 11.2 | 10.4
Oc1ccc(C(O)CNCCCCCCNCC(O)c2ccc(O)c(O)c2)cc1O (stereo not given) [hexoprenaline] | 103% | 109% | 99.2% | 101% | 98.7% | 102% | 97.6% | 95.4% | 102% | 95% | 103% | 104% | 110% | 93.2% | 103% | 97.3% | 102% | 93.7% | 95.9% | 88.3% | 95.8% | 97.9% | 99.7% | 97.9% | 100% | > 10 µM | > 10 µM | > 10 µM | > 10 µM | > 10 µM | 0 | 0 | 0 | 0 | 0
CCCCOc1cc(C(=O)NCCN(CC)CC)c2ccccc2n1 [cinchocaine] | 103% | 104% | 97.8% | 103% | 94.1% | 100% | 98.2% | 101% | 98.1% | 101% | 97.2% | 107% | 102% | 94.7% | 89.2% | 99.9% | 95% | 103% | 94.2% | 88.1% | 96.6% | 94.4% | 97.4% | 94.3% | 92.3% | > 10 µM | > 10 µM | > 10 µM | > 10 µM | > 10 µM | 0 | 0 | 0.1 | 0.3 | 0
C[C@H](Cc1ccc(OCC(=O)O)cc1)NC[C@H](O)c1cccc(Cl)c1 | 97.6% | 95.9% | 91.7% | 92.3% | 105% | 98% | 93.3% | 96% | 102% | 99.8% | 104% | 111% | 98.4% | 99.8% | 97.7% | 98.6% | 89.6% | 105% | 94.8% | 103% | 97.9% | 101% | 103% | 100% | 90.7% | > 10 µM | > 10 µM | > 10 µM | > 10 µM | > 10 µM | 0 | 0 | 0 | 0 | 0
C[C@H]1COC2=C1C(=O)C(=O)c1c2ccc2c1CCCC2(C)C [cryptotanshinone] | 95% | 102% | 103% | 98.5% | 100% | 101% | 103% | 100% | 101% | 94.4% | 97.3% | 93.3% | 97.2% | 98.9% | 98% | 97.2% | 93% | 98.1% | 102% | 85.4% | 111% | 111% | 99.1% | 107% | 108% | > 10 µM | > 10 µM | > 10 µM | > 10 µM | > 10 µM | 0 | 0 | 0 | 0.1 | 0
Oc1cccc(O)c1 [resorcinol] | 103% | 96% | 97.4% | 96.5% | 107% | 97.6% | 93.8% | 96.2% | 96.8% | 103% | 105% | 92.9% | 90.4% | 79.2% | 89% | 103% | 89.8% | 95.5% | 100% | 103% | 97.5% | 102% | 114% | 99.2% | 103% | > 10 µM | > 10 µM | > 10 µM | > 10 µM | > 10 µM | 0 | 0 | 2.5 | 0 | 0
CSc1cc2c(cc1C(F)(F)F)N(C(=O)Nc1cccnc1)CC2 | 102% | 104% | 96.5% | 102% | 102% | 100% | 99.6% | 108% | 98.9% | 101% | 109% | 95.6% | 85% | 99% | 94.7% | 103% | 101% | 95.5% | 97.5% | 97.9% | 106% | 83.3% | 93.2% | 91.2% | 107% | > 10 µM | > 10 µM | > 10 µM | > 10 µM | > 10 µM | 0 | 0 | 0 | 0 | 0
COc1cccc(-c2cc(F)ccc2[C@H]2Cc3nc(N)nc(C)c3C(=O)N2)n1 [NVP-HSP990] | 101% | 112% | 47.3% | 27.8% | 26.6% | 102% | 94.9% | 19.3% | 2.5% | 3.2% | 105% | 104% | 0.7% | 0.2% | 0.5% | 110% | 67.8% | 51.1% | 42.2% | 41% | 108% | 97.1% | 43.5% | 34.4% | 36.2% | 0.0697 µM | 0.0446 µM | 0.0343 µM | 0.0094 µM | 0.0427 µM | 19.6 | 27.7 | 30 | 22.6 | 19.3
c1ccc2oc(C3=NCCN3)cc2c1 [2-BFI] | 93.8% | 100% | 90.5% | 94.4% | 107% | 100% | 96.7% | 99.7% | 99.9% | 97.7% | 97.9% | 98.3% | 87.5% | 98% | 100% | 102% | 96.2% | 97.7% | 93.6% | 112% | 95.9% | 99.7% | 102% | 100% | 95.7% | > 10 µM | > 10 µM | > 10 µM | > 10 µM | > 10 µM | 0 | 0 | 0 | 0 | 0
Cc1cc(C)n(-c2cccc([C@H](CC(=O)O)CN3CC[C@@H](CCc4ccc5c(n4)NCCC5)C3)c2)n1 [integrin-antagonist-1] | 99.2% | 102% | 105% | 95% | 99.1% | 104% | 95.6% | 104% | 103% | 97.2% | 107% | 97.8% | 104% | 97.8% | 99.9% | 104% | 102% | 94.4% | 99% | 105% | 92.1% | 98% | 101% | 96.6% | 98.4% | > 10 µM | > 10 µM | > 10 µM | > 10 µM | > 10 µM | 0 | 0 | 0 | 0 | 0
C=CCN1CC[C@]23c4c5ccc(O)c4O[C@H]2C(=O)CC[C@@]3(O)[C@H]1C5 [NALOXONE HYDROCHLORIDE] | 99% | 103% | 104% | 95.9% | 100% | 103% | 99.7% | 102% | 103% | 100% | 106% | 97.9% | 102% | 95.9% | 103% | 98% | 94.7% | 101% | 100% | 104% | 94.5% | 94.4% | 88.5% | 91% | 99.6% | > 10 µM | > 10 µM | > 10 µM | > 10 µM | > 10 µM | 0 | 0 | 0 | 0 | 0
COc1cc2c(=O)c(-c3ccc(O)cc3)coc2cc1O [glycitein] | 102% | 103% | 98.2% | 99.6% | 94.4% | 98.1% | 99.3% | 102% | 98.2% | 99.5% | 105% | 103% | 99.2% | 111% | 92.9% | 86.4% | 97.3% | 101% | 96% | 94.2% | 92.9% | 99.6% | 101% | 101% | 96.7% | > 10 µM | > 10 µM | > 10 µM | > 10 µM | > 10 µM | 0 | 0 | 0 | 0 | 0
